Measurements: paper PMC3707170, “Polyketides from a Marine-Derived Fungus Xylariaceae sp” (Marine Drugs, 2013)
≈ marks a conversion by molar mass, not a printed value. Where two headings read alike, the source gives them in different places.

Key:
cathepsin B = molecular target: T1, cathepsin B (Homo sapiens, UniProt P07858); assay: Cathepsin B activity assay (fluorogenic Z-Arg-Arg-AMC substrate); type: biochemical; conditions: cathepsin B from human liver; read-out: IC50, inhibitory activity towards cathepsin B
T1 construct: cathepsin B from human liver (Sigma); purchased Sigma; host or cells: human liver (tissue-purified)
Experimental: (§1) Enzyme-inhibitory activity assays were tested according to literatures reported.
Figure S32. IR spectrum of 8-methoxy-1-naphthyl-1-(6′-O-acetyl)-α-glucopyranoside (10).
S1. Enzyme Inhibitory Assay
S1.1. Cathepsin B Activity Assay
The assay was performed in 96-well plate according to a published method with modification.
Brifely, 50 μL reaction buffer (100 mM sodium acetate (pH 5.5), 1 mM EDTA, 4 mM dithiothreitol) containing 0.0025 unit of cathepsin B from human liver (Sigma, one unit will liberate 1 nanomole of 7-amino-4-methylcoumarin from Z-Arg-Arg 7-amido-4-methylcoumarin per min at pH 6.0 at 40 °C) and 2 μL test compounds dissolved in DMSO were added to each well of a 96-well plate. After preincubation for 15 min at room temperature, 50 μL of reaction buffer containing 100 μM Z-Arg-Arg-7-amido-4-methylcoumarin (Sigma) was added and incubated for 30 min at room temperature.
Fluorescence was measured using a microplate reader (Wallac 1420 Victor 2, PerkinElmer, HolIand) with an excitation of 355 nm and emission at 460 nm.
His-taged human IMPDH П was recombinantly expressed in Escherichia coli and purified by Ni-NTA affinity chromotagraphy as described previously. The IMPDH activity assay was performed in 200-μL assay volume of 96-well plate. Briefly, 2 μL of test compound (dissolved in DMSO) or DMSO and 150 μL enzyme buffer containing 100 mM KH2PO4, 0.5 mM EDTA pH 8, and 2 mM dithiothreitol and 50 nM IMPDH were added into the plate and incubated at 37 °C for 15 min. The reaction was initiated by adding 50 μL reaction buffer containing a final concentration of 200 μM inosine 5-monophosphate (Sigma) and 200 μM NAD (Sigma). The OD was read at 340 nm after incubation at 37 °C for 30 min with a microplate reader (Wallac 1420 Victor 2, PerkinElmer, HolIand).
(1 picture or pasted object on this page, not shown here)

Bugula neritina larvae = assay: Larval settlement (antifouling) bioassay; conditions: for LC50/EC50: B. neritina larvae, ratio of lethal to settlement-inhibiting concentration; for EC50: Bugula neritina, 1 h, read-out: EC50, antifouling activity against B. neritina larvae settlement
Experimental: Larval culture and larval settlement assays matched the method reported in reference. […]
(§2) S2. Larval Settlement Bioassays
(§3) Antifouling activity of compounds was evaluated in settlement inhibition assays with laboratory-reared B. neritina larvae. Larval settlement bioassays were performed using sterile 24-well polystyrene plates as previously reported. Briefly, the stock solution of tested samples in DMSO was diluted with autoclaved filtered sea water (FSW) to concentrations ranging from 1 to 300 ppm. Then the EC50 and LC50 values of active compounds were calculated. In this way, about 20 competent larvae were added to each well in 1 mL of the test solution. Wells containing only FSW with DMSO served as the controls.
(§4) Three replicates of each treatment were used. The plates were incubated at 27 °C for 1 h. The percentage of larval settlement was determined by counting the settled, live individuals under a dissecting microscope and expressing the result as a proportion of the total number of larvae in the well. EC50 (inhibits 50% of settlement of B. neritina larvae in comparison with the control) and LC50 (refers to the concentration that kills 50% of the test organisms in comparison with the control) levels of active compounds were calculated by using the Excel software program.

IMPDH = molecular target: T2, IMPDH (Homo sapiens, UniProt P12268); assay: IMPDH enzyme assay (OD at 340 nm); type: biochemical; conditions: recombinant human IMPDH II; read-out: IC50, inhibitory activity towards IMPDH
T2 construct: His tag; made in house; host or cells: Escherichia coli

SHP2 = molecular target: T3, SHP2 (Homo sapiens, UniProt Q06124); assay: SHP2 activity assay (pNPP substrate); type: biochemical; conditions: human recombinant enzyme, read-out: IC50, inhibitory activity towards SHP2
T3 construct: made in house; host or cells: E. coli
T3 sequence (Q06124 1-593): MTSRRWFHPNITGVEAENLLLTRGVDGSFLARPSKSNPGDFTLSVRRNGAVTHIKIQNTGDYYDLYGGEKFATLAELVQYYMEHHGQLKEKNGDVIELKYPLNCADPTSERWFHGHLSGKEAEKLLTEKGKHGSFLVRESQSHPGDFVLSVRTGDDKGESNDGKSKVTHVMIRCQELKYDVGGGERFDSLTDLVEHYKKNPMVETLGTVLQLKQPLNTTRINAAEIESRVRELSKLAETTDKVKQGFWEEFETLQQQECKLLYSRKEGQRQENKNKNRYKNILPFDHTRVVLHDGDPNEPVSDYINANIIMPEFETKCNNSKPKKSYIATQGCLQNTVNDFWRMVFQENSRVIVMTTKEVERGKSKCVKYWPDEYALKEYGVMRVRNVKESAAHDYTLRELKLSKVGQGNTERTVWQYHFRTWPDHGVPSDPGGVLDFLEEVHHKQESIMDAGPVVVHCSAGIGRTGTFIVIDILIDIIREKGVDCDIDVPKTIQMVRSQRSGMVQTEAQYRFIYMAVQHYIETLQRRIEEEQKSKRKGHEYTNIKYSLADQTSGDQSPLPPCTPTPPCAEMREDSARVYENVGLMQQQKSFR
Experimental: as §1
S1.3. PTP1B and SHP2 Activity Assays
Human recombinant PTP1B and SHP2 were expressed in E. coli and purifed by Ni-NTA affinity chromotagraphy in our laboratory, respectively. The enzyme activity was measured using p-nitrophenyl phosphate (pNPP) as substrate in a 96-well plate. Brifely, purified recombinant PTP1B or SHP2 (0.05 μg) in 50 μL buffer containing 50 mM citrate (pH 6.0), 0.1 M NaCl, 1 mM EDTA, and 1 mM dithiothreitol (DTT) and test compounds were added to each well of a 96-well plate. After preincubation for 15 min at room temperature, 50 μL of reaction buffer containing 2 mM pNPP was added and incubated at 37 °C for 30 min. The PTP1B or SHP2 activity was measured by detecting the absorbance at 405 nm for the amount of produced p-nitrophenol.
as §2, §3, §4

PTPlB = molecular target: T4, PTPlB (Homo sapiens, UniProt P18031); assay: PTP1B activity assay (pNPP substrate); type: biochemical; conditions: human recombinant enzyme, read-out: IC50, inhibitory activity towards PTPlB
T4 construct: made in house; host or cells: E. coli
T4 sequence (P18031 1-435): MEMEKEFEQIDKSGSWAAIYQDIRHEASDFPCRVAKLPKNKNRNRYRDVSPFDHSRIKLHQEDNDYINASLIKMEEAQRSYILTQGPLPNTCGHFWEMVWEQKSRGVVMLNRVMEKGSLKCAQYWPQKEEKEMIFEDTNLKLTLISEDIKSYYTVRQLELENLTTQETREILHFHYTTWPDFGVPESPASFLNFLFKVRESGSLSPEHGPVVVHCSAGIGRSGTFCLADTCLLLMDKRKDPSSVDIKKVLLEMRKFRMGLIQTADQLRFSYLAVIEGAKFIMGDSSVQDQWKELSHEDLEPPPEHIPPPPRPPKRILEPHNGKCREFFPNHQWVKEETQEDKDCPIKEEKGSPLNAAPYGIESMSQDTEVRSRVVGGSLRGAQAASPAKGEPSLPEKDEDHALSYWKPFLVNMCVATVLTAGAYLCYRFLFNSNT

[1] = set-up: method as in doi:10.1016/j.tet.2009.02.054; conditions: previous studies ref 23; cited from earlier work

| IC50 (SHP2) | SMILES | IC50 (cathepsin B) | LC50/EC50 (Bugula neritina larvae) | IC50 (IMPDH) | further results |
| --- | --- | --- | --- | --- | --- |
| – | Cc1c([C@H](C)[C@@H](C)O)cc(O)c(C(=O)O)c1O [Compound 7, phenol A acid] | 20.4 ± 1.9 µM | > 15 | – | EC50 (Bugula neritina larvae; 27 °C): 14.3 ± 1.72 µg/mL (≈ 59.7 µM) |
| 2.8 µM | C[C@H]1[C@H](C)CC[C@]2(C(=O)O)CC[C@]3(C)C(=CC[C@@H]4[C@@]5(C)CC[C@H](O)C(C)(C)[C@@H]5CC[C@]43C)[C@H]12 [ursolic acid, reference compound] | – | – | – | – |
| – | Cc1c(O)c(C(=O)O)c(O)c2c1[C@H](C)[C@@H](C)OC2=O [Compound 4, dihydrocitrinone] | 28.5 ± 1.7 µM | – | – | – |
| 4.1 ± 0.6 µM | O=C1C[C@@H](O)[C@@H](O)c2cccc(O)c21 [Compound 17, (3R,4S)-(+)-4-hydroxy-6-deoxyscytalone] | – | – | 41.2 ± 3.6 µM | IC50 (PTPlB): 13.9 ± 1.8 µM; phytotoxicity (in words) [1]: phytotoxic substance |
| – | CC(=O)N[C@@H](CC(C)C)C(=O)N[C@@H](CC(C)C)C(=O)N[C@H](C=O)CCCNC(=N)N [leupeptin, reference compound] | 0.03 µM | – | – | – |

| SMILES | IC50 (SHP2) | IC50 (cathepsin B) | LC50/EC50 (Bugula neritina larvae) | IC50 (IMPDH) | further results |
| --- | --- | --- | --- | --- | --- |
| Cc1c2c(c3oc4cc(=O)c(C)c5c-4c(c3c1O)O[C@H](C)[C@H]5C)O[C@H](C)[C@H]2C [Compound 6, dicitrinin A] | 58.4 ± 4 µM | – | > 56 | 98.7 ± 6.2 µM | EC50 (Bugula neritina larvae): 1.76 ± 0.8 µg/mL (≈ 4.63 µM) |
